Laboratory results published in EPA's ToxValDB 9.5 (doi:10.2903/j.efsa.2006.72r).
Converted amounts (≈) assume the structure as drawn.

Legend:
Landoltia sp. = details: acute; duration: 14 days; mortality
Oncorhynchus mykiss = details: acute; duration: 96 hours; mortality
Rattus norvegicus = details: for LD50: acute, mortality; for NOAEL: histopathology: neoplastic
Cyprinodon variegatus = details: acute; duration: 96 hours; mortality
Colinus virginianus = details: acute; oral; diet; mortality
Oryctolagus sp. = details: reproduction developmental; inhalation
Pimephales promelas = details: chronic/long-term; duration: 33 days; growth
Daphnia magna = details: chronic/long-term; duration: 21 days; mortality
Mus musculus = details: chronic, duration: 2 years
Folsomia candida = details: not reported; mortality
Anas platyrhynchos = details: short-term; oral; feed; mortality
Canidae = details: short-term; duration: 2 weeks; Dog Other

With `O=C(O)C=CCl` [3-Chloroacrylic acid] the LC50 (Landoltia sp.) was 0.26 µg/mL (≈ 2.44 µM), the LC50 (Oncorhynchus mykiss) was 69.5 µg/mL (≈ 653 µM) and the LD50 (Rattus norvegicus; oral) was 91 mg/kg.

Work on `ClC=CCCl` [1,3-Dichloropropene] yielded an LC50 (Cyprinodon variegatus) of 0.87 µg/mL (≈ 7.84 µM), an LD50 (Colinus virginianus) of 140 mg/kg and an LC50 (Tagia sp.; acute, duration: 14 days, mortality) of 55.6 mg/kg. The NOEC (Tagia sp.; chronic/long-term, duration: 56 days, reproduction) was 770 mg/kg, the NOAEL (Oryctolagus sp.) was 0.0908 mg/L and the NOEC (Pimephales promelas) was 0.032 mg/L. For the same compound, the NOEC (Daphnia magna) was 0.0701 mg/L, the NOAEL (Mus musculus; inhalation, histopathology: neoplastic) was 4.43 mg/kg-day and the NOAEL (Mus musculus; oral, M/F) was 2.5 mg/kg-day. The LEL (Folsomia candida) was 329000 g/ha, the LC50 (Anas platyrhynchos) was > 1260 mg/kg-day and the LD50 (Rattus norvegicus; inhalation) was 2.7 mg/L. For the same compound, the LD50 (Rattus norvegicus; oral) was 130 mg/kg, the NOAEL (Rattus norvegicus; chronic, duration: 2 years, oral, diet) was 2.5 mg/kg-day and the NOAEL (Rattus norvegicus; subchronic, duration: 90 days, inhalation) was 9.72 mg/kg-day. The NOAEL (Canidae) was 20 mg/kg-day.
